Series [1] deals with MAO-A enzyme (Homo sapiens (Human), UniProt P21397). Briefly: Measurement of MAO-A inhibitory activity (MAO-Glo Assay). Type of series: biochemical.
Method: The MAO-A inhibitory activity evaluation described below followed the protocol of MAO-Glo (registered trademark) Assay of Promega KK.
A test compound dissolved in DMSO was added to a reaction solution (100 mM HEPES (pH 7.5), 5% glycerol) containing MAO-A enzyme (Sigma-Aldrich Co. LLC.), and the mixture was reacted at room temperature for 15 min. MAO substrate (Promega KK) was added to start the reaction. After reaction at room temperature for 60 min, Luciferine detection reagent (Promega KK) was added to terminate the reaction. After reaction at room temperature for 20 min with stirring, the luminescence was measured by Envision (PerkinElmer). The MAO-A inhibitory rate (%) of the test compound was calculated by the following formula. inhibitory rate (%)=(1−(test compound count−blank)÷(control−blank))×100
The count of the MAO-A enzyme reaction mixture under compound non-addition conditions is indicated as control, and the count under compound non-addition and MAO-A enzyme non-addition conditions is indicated as blank.
Series [2] deals with MAO-B enzyme (Homo sapiens (Human), UniProt P27338). Briefly: Measurement of MAO-B inhibitory activity (MAO-Glo Assay). Format: biochemical.
Method: The MAO-B inhibitory activity evaluation described below followed the protocol of MAO-Glo (registered trademark) Assay of Promega KK.
A test compound dissolved in DMSO was added to a reaction solution (100 mM HEPES (pH 7.5), 5% glycerol, 10% DMSO) containing MAO-B enzyme (Sigma-Aldrich Co. LLC.), and the mixture was reacted at room temperature for 15 min. MAO substrate (Promega KK) was added to start the reaction. After reaction at room temperature for 60 min, Luciferine detection reagent (Promega KK) (50 μL) was added to terminate the reaction. After reaction at room temperature for 20 min with stirring, the luminescence was measured by Envision (PerkinElmer). The MAO-B inhibitory rate (%) of the test compound was calculated by the following formula. inhibitory rate (%)=(1−(test compound count−blank)÷(control−blank))×100
The count of the MAO-B enzyme reaction mixture under compound non-addition conditions is indicated as control, and the count under compound non-addition and MAO-B enzyme non-addition conditions is indicated as blank.
In series [3] the target is human LSD1(172-833) (Homo sapiens (Human), UniProt O60341). The experiment in a line: Measurement of LSD1 inhibitory activity (time-resolved fluorescence, biotin-histone H3 mono methylated K4 peptide).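 Further: after the compound–enzyme step, substrate reaction 5 min at room temperature in Tris-HCl pH 8.0 with BSA and DTT, halted by 2-PCPA, detected with europium anti-histone H3 antibody plus Streptavidin-XL665.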 Type of series: biochemical. The note with it: 60 min preincubation with enzyme at room temperature.
Method: A test compound dissolved in DMSO was added by to a reaction solution (50 mM Tris-HCl (pH 8.0), 0.1% BSA, 1 mM DTT) containing LSD1 enzyme, and the mixture was reacted at room temperature for 60 min. […] After reaction at room temperature for 5 min, 2-PCPA solution was added to terminate the reaction. A detection solution (800 mM potassium fluoride, 0.1% BSA) containing europium-labeled anti-histone H3 antibody (Wako Pure Chemical Industries, Ltd.) and Streptavidin-XL665 (Cisbio) was further added, and the mixture was left standing for 60 min. […] The LSD1 inhibitory rate (%) of the test compound was calculated by the following formula. inhibitory rate (%)=(1−(test compound count−blank)÷(control−blank))×100
The count of the LSD1 enzyme reaction mixture under compound non-addition conditions is indicated as control, and the count under compound non-addition and LSD1 enzyme non-addition conditions is indicated as blank. A concentration necessary for achieving 50% inhibitory rate was taken as ICH value.
Series [4] is described as follows: Evaluation of blood cell number in mouse. Format: in vivo. Particulars: male ICR mice, oral, repeated 7 or 9 days. As for the experimental part: All compounds were repeatedly administered to the mice at a dose of 1 mg/kg, 10 mg/kg or 100 mg/kg (body weight) for 7 or 9 days. One day after the final administration of the compound, the whole blood was collected.
Using Sysmex XT-1800i (Sysmex Corporation), the white blood cell number, red blood cell number, and platelet number in the collected whole blood per unit volume were measured. The influence of each compound on each blood cell number was determined by calculating the number with the mean of each blood cell number of the mouse without administration of the compound (0 mg/kg group), and the mean of each blood cell number in the whole blood of a mouse with the administration of the compound.

The structures appear in SMILES notation. Structures can show the parent of a compound that is named as a salt. Where two headings read alike, the source gives them in different places. Some results are limits rather than exact numbers.

Sequence of MAO-B enzyme (P27338 whole entry): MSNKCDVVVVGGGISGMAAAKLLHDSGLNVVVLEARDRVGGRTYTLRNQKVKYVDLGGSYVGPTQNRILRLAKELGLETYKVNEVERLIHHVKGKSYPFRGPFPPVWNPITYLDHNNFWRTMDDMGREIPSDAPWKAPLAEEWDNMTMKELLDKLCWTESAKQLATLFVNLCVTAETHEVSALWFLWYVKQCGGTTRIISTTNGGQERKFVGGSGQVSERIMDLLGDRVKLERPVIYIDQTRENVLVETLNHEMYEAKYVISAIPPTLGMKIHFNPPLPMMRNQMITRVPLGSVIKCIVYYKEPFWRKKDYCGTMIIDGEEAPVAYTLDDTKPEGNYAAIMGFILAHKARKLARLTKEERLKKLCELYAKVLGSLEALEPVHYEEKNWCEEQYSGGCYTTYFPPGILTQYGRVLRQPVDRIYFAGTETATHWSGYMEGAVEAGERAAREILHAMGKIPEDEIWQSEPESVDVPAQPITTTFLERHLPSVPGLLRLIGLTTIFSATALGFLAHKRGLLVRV
Sequence of MAO-A enzyme (P21397 whole entry): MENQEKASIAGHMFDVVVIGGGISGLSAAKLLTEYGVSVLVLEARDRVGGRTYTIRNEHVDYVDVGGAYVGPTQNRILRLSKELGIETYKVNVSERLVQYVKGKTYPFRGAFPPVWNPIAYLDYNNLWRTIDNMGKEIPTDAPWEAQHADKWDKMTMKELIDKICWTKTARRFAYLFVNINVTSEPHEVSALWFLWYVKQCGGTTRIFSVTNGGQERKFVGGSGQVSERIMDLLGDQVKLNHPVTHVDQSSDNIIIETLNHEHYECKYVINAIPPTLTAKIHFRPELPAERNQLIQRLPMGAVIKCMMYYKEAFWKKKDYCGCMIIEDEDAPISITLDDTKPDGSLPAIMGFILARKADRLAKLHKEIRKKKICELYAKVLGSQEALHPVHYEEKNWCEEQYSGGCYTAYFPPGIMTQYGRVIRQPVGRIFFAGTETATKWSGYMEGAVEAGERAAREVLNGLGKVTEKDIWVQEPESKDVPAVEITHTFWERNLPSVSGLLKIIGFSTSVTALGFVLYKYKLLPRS

A word on the IC50: it is the midpoint of a concentration-inhibition curve. As to `O=C(NC1CCC(F)(F)CC1)c1cc2c(c([C@@H]3C[C@H]3NCC3CCOCC3)c1)OCC2` (relative stereo) [Example 12, N-(4,4-difluorocyclohexyl)-7-(trans-2-((tetrahydro-2H-pyran-4-ylmethyl)amino)cyclopropyl)-2,3-dihydro-1-benzofuran-5-carboxamide hydrochloride], the 50% inhibitory concentration (IC50) was over 100 µM in series [1], over 100 µM in series [2] and under 0.1 µM in series [3].
In the case of `Cc1nnc(NC(=O)c2cc([C@@H]3C[C@H]3NCC3CCOCC3)cc3ccccc23)s1` (relative stereo) [Example 16, N-(5-methyl-1,3,4-thiadiazol-2-yl)-3-(trans-2-((tetrahydro-2H-pyran-4-ylmethyl)amino)cyclopropyl)-1-naphthamide dihydrochloride], the IC50 in series [1] was over 100 µM; in series [2] it was over 100 µM; in series [3] it was under 0.1 µM.
`Cc1nnc(NC(=O)c2csc([C@@H]3C[C@H]3NCC3CC3)c2)s1` (relative stereo) [Example 23, 5-(trans-2-((cyclopropylmethyl)amino)cyclopropyl)-N-(5-methyl-1,3,4-thiadiazol-2-yl)thiophene-3-carboxamide dihydrochloride]: the IC50 in series [1] and in series [2] was over 100 µM each time.
Take `O=C(NC1CCC(F)(F)CC1)c1csc([C@@H]2C[C@H]2NCC2CCOCC2)c1` (relative stereo) [Example 24, N-(4,4-difluorocyclohexyl)-5-(trans-2-((tetrahydro-2H-pyran-4-ylmethyl)amino)cyclopropyl)thiophene-3-carboxamide hydrochloride]: the IC50 in series [1] was over 100 µM; in series [2], over 100 µM; in series [3], under 0.1 µM.
`O=C(NC1CCC(F)(F)CC1)c1csc([C@@H]2C[C@H]2NCC2CC2)c1` (relative stereo) [Example 30, 5-(trans-2-((cyclopropylmethyl)amino)cyclopropyl)-N-(4,4-difluorocyclohexyl)thiophene-3-carboxamide hydrochloride]: the values for the IC50 in series [1], in series [2] and in series [3] were over 100 µM, over 100 µM and under 0.1 µM, respectively.
`O=C(NC1CCC(F)(F)CC1)c1csc([C@@H]2C[C@H]2NC2CCOCC2)c1` (relative stereo) [Example 31, N-(4,4-difluorocyclohexyl)-5-(trans-2-(tetrahydro-2H-pyran-4-ylamino)cyclopropyl)thiophene-3-carboxamide hydrochloride]: the IC50 in series [1] is over 100 µM; in series [2], over 100 µM; in series [3], under 0.1 µM.
In the case of `Cn1cc(NC(=O)c2csc([C@@H]3C[C@H]3NC3CCC3)c2)cn1` (relative stereo) [Example 34, 5-(trans-2-(cyclobutylamino)cyclopropyl)-N-(1-methyl-1H-pyrazol-4-yl)thiophene-3-carboxamide hydrochloride], the half-maximal inhibitory concentration (IC50) was over 100 µM in series [1], over 100 µM in series [2] and under 0.1 µM in series [3].
For `Cc1nnc(NC(=O)c2cc([C@@H]3C[C@H]3NCC3CCOCC3)cs2)s1` (relative stereo) [Example 58, N-(5-methyl-1,3,4-thiadiazol-2-yl)-4-(trans-2-((tetrahydro-2H-pyran-4-ylmethyl)amino)cyclopropyl)thiophene-2-carboxamide hydrochloride], the results for the IC50 in series [1], in series [2] and in series [3] were over 100 µM, over 100 µM and under 0.1 µM, respectively.
In the case of `Cc1sc([C@@H]2C[C@H]2NCC2CC2)cc1C(=O)NC1CCC(F)(F)CC1` (relative stereo) [Example 65, 5-(trans-2-((cyclopropylmethyl)amino)cyclopropyl)-N-(4,4-difluorocyclohexyl)-2-methylthiophene-3-carboxamide hydrochloride], the concentration for half-maximal inhibition (IC50) is 25 µM in series [1], over 100 µM in series [2] and under 0.1 µM in series [3].
As to `Cc1sc([C@@H]2C[C@H]2NCC2CCOCC2)cc1C(=O)NC1CCC(F)(F)CC1` (relative stereo) [Example 66, N-(4,4-difluorocyclohexyl)-2-methyl-5-(trans-2-((tetrahydro-2H-pyran-4-ylmethyl)amino)cyclopropyl)thiophene-3-carboxamide hydrochloride], the values for the IC50 in series [1], in series [2] and in series [3] were 98 µM, over 100 µM and under 0.1 µM, respectively.
For the compound `Cc1nnc(NC(=O)c2cc([C@@H]3C[C@H]3NCC3CC3)sc2C)s1` (relative stereo) [Example 69, 5-(trans-2-((cyclopropylmethyl)amino)cyclopropyl)-2-methyl-N-(5-methyl-1,3,4-thiadiazol-2-yl)thiophene-3-carboxamide dihydrochloride], the 50% inhibitory concentration (IC50) in series [1] is 33 µM; in series [2], over 100 µM; in series [3], under 0.1 µM.
Turning to `Cc1nnc(NC(=O)c2cc([C@@H]3C[C@H]3NCC3CCOCC3)sc2C)s1` (relative stereo) [Example 70, 2-methyl-N-(5-methyl-1,3,4-thiadiazol-2-yl)-5-(trans-2-((tetrahydro-2H-pyran-4-ylmethyl)amino)cyclopropyl)thiophene-3-carboxamide dihydrochloride], the half-maximal inhibitory concentration (IC50) was 10 µM in series [1], 23 µM in series [2] and under 0.1 µM in series [3].
In the same order, the values of `O=C(NC1CCCC1)c1csc(C2CC2NC2CCOCC2)c1` (single isomer, unassigned) [Example 38, hydrochloride] are over 100 µM, over 100 µM and under 0.1 µM.
Turning to `O=C(NC1CCCC1)c1csc(C2CC2NC2CCOCC2)c1` (single isomer, unassigned) [Example 39], the IC50 is 23 µM in series [1], over 100 µM in series [2] and under 0.1 µM in series [3].
Regarding `Cc1nnc(NC(=O)c2csc(C3CC3NCC3CCOCC3)c2)s1` (single isomer, unassigned) [Example 41, dihydrochloride], the figures for the IC50 in series [1] (dihydrochloride) and in series [3] were 67 µM and under 0.1 µM, respectively.
With `Cc1nnc(NC(=O)c2cc([C@@H]3C[C@H]3NCC3CCOCC3)cs2)s1` [Example 72, N-(5-methyl-1,3,4-thiadiazol-2-yl)-4-((1S,2R)-2-((tetrahydro-2H-pyran-4-ylmethyl)amino)cyclopropyl)thiophene-2-carboxamide hydrochloride], the IC50 in series [3] was under 0.1 µM.
Consider `Cc1nnc(NC(=O)c2cc([C@@H]3C[C@H]3NCC3CC3)c(C)s2)s1` [Example 95, 4-((1S,2R)-2-((cyclopropylmethyl)amino)cyclopropyl)-5-methyl-N-(5-methyl-1,3,4-thiadiazol-2-yl)thiophene-2-carboxamide fumarate], for which, in series [4] (1 mg/kg), the “Platelets, Mean” value is recorded as 1352 10^3 cells; the “Red blood cells, Mean” value is on record as 888 10^4 cells; the “White blood cells, Mean” value is recorded as 422 10 cells. Also, in series [4] (10 mg/kg), the “Platelets, Mean” value is recorded as 1482 10^3 cells; the “Red blood cells, Mean” value is listed as 898 10^4 cells; the “White blood cells, Mean” value is on record as 408 10 cells.
On to `Cc1sc(C(=O)Nc2cnn(C)c2)cc1[C@@H]1C[C@H]1NC1CCC1` [Example 104, 4-((1S,2R)-2-(cyclobutylamino)cyclopropyl)-5-methyl-N-(1-methyl-1H-pyrazol-4-yl)thiophene-2-carboxamide dihydrochloride], for which, in series [4] (1 mg/kg, dihydrochloride), the “Platelets, Mean” value is recorded as 1370 10^3 cells; the “Red blood cells, Mean” value is on record as 870 10^4 cells; the “White blood cells, Mean” value is given as 373 10 cells. Further, in series [4] (10 mg/kg, dihydrochloride), the “Platelets, Mean” value is 1404 10^3 cells; the “Red blood cells, Mean” value is on record as 872 10^4 cells; the “White blood cells, Mean” value is 397 10 cells.

These data come from patent US9487511B2, “Cyclopropanamine compound and use thereof” (Takeda Pharmaceutical Company Limited, priority 2014, dated 2016).
